Source: patent US11084783B2, “O-alkyl-benzylideneguanidine derivatives and therapeutic use for the treatment of disorders associated with an accumulation of misfolded proteins” (INFLECTIS BIOSCIENCE, priority 2014, dated 2021)

Assays:
human alpha2A receptor = biological target: T1, human alpha2A receptor (Homo sapiens, UniProt P08913); test: Functional GPCR assay for adrenergic α2A receptor (CellKey detection method); type: cell-based; details: agonist activity, CHO cells expressing human alpha2A receptor, impedance (CellKey); read-out: Functional adrenergic alpha2 receptor assay EC50
T1 construct: CHO cells endogenously expressing human alpha2A receptor; endogenous in cells; host or cells: CHO cells
T1 sequence (P08913 1-465): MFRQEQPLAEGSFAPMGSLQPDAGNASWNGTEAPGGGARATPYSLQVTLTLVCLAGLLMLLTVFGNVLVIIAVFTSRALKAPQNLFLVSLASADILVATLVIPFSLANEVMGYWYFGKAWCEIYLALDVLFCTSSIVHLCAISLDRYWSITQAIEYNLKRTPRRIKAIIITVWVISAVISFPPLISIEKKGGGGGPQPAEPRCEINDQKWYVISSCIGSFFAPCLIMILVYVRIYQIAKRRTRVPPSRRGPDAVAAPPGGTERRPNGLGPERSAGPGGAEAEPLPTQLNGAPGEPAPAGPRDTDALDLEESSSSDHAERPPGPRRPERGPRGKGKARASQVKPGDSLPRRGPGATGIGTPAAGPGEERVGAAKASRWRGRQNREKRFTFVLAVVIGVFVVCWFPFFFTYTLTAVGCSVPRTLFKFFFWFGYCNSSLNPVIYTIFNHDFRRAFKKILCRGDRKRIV
Protocol: The agonist activity of compounds was evaluated on CHO cells […] expressing human alpha2A receptor and was determined by measuring their effects on impedance modulation using the CellKey detection method. Cells were seeded onto 96-well plate at density of 6×10^4 cells/well in HBSS buffer (Invitrogen)+20 mM HEPES (Invitrogen) with 0.1% BSA and are allowed to equilibrate for 60 min at 28° C. before the start of the experiment. Plates were placed onto the system and measurements were made at a temperature of 28° C. Solutions were added simultaneously to all 96 wells using an integrated fluidics system: HBSS (basal control), reference agonist at 100 nM (stimulated control), reference agonist (EC50 determination) or the test compounds. Impedance measurements are monitored for 10 minutes after ligand addition. The standard reference agonist is epinephrine, which is tested in each experiment at several concentrations to generate a concentration-response curve from which its EC50 value is calculated.
Dose-response data from test compounds were analysed with Hill software using non-linear regression analysis of the concentration-response curves generated with mean replicate values using Hill equation curve fitting.

[1] = test system: mouse embryonic fibroblasts lipofected with poly I:C; test: In vitro inflammation/infection model: poly I:C induced mouse embryonic fibroblasts; type: cell-based; details: 25 μM, 6h, IFN-beta ELISA in culture supernatants
Protocol: Mouse Embryonic Fibroblasts (MEFs) were lipofected with poly I:C and treated with […] compounds of the invention (25 μM) for 6h. After 6h of culture, elF2alpha-phosphorylation (elF2a-P) and PPP1R15A (GADD34) expression was monitored by western blotting, while type-1 Interferon(IFN)-beta production was quantified in culture supernatants by ELISA. Control (nt) and poly I:C/DMSO are respectively negative and positive controls. Poly I:C (polyinosinic:polycytidylic acid or polyinosinic-polycytidylic acid sodium salt) is an immunostimulant used to simulate viral infections. Poly I:C which is structurally similar to double-stranded RNA, is known to interact with toll-like receptor 3 which is expressed in the intracellular compartments of B-cells and dendritic cells. Guanabenz (25 μM) was used as reference inhibitory compound.
MEFs were cultured in DMEM, 10% FCS (HyClone, Perbio), 100 units/ml penicillin, 100 μg/ml streptomycin, 2 mM glutamine, 1× MEM non-essential amino acids and 50 μM 2-mercaptoethanol. MEFS were treated for the indicated time with 10 μg/ml poly I:C (InvivoGen) in combination with lipofectamine 2000 (Invitrogen).
Cells were lysed in 1% Triton X-100, 50 mM Hepes, 10 mM NaCl, 2.5 mM MgCl2, 2 mM EDTA, 10% glycerol, supplemented with Complete Mini Protease Inhibitor Cocktail Tablets (Roche). Protein quantification was performed using the BCA Protein Assay (Pierce). 25-50 μg of Triton X-100-soluble material was loaded on 2%-12% gradient or 8% SDS-PAGE before immunoblotting and chemi-luminescence detection (SuperSignal West Pico Chemi-luminescent Substrate, Pierce). Rabbit polyclonal antibodies recognizing GADD34 (C-19) were from Santa Cruz Biotechnology and anti-elF2alpha[pS^52] were from Invitrogen.
IFN-beta quantification in culture supernatant was performed using the Mouse Interferon Beta ELISA kit (PBL Interferon Source) according to manufacturer instructions.
Normal response of MEFs to poly I:C is characterized by PPP1R15A expression, increase in elF2alpha-P (variable in time and related to the levels PPP1R15A expression) mediated by PKR activation and type-I IFN production (range 500 to 700 pg/ml). Knock out PPP1R15A MEFs are unable to produce this cytokine in response to poly I:C.
The potency of compounds of the invention to inhibit PPP1R15A was evaluated by measuring the increase of elF2alpha phosphorylation, the decrease of PPP1R15A expression due to its own pharmacological inhibition resulting in general protein synthesis inhibition and type-I IFN production.

`CCO/N=C(\N)N/N=C/c1ccccc1Cl` [Compound 10, 2-(2-chlorobenzylidene)-N′-ethoxyhydrazinecarboximidamide] was tested, and the EC50 (human alpha2A receptor) was > 33.3 µM and the “prevention of type-I IFN production (FIG. 9)” value (from here on “prevention”) [1] was “prevent type-I IFN production”.

For `CCONC(=N)N/N=C/c1c(Cl)cccc1Cl` [Compound 11, 2-(2,6-dichlorobenzylidene)-N-ethoxyhydrazinecarboximidamide], the EC50 (human alpha2A receptor) was > 0.7 µM and the “prevention” value [1] was “prevent type-I IFN production”.

With `CCCONC(=N)N/N=C/c1ccccc1Cl` [Compound 12, 2-(2-chlorobenzylidene)-N-propoxyhydrazinecarboximidamide] the EC50 (human alpha2A receptor) was > 33.3 µM and the “prevention” value [1] was “prevent type-I IFN production”.

In the case of `CCONC(=N)N/N=C/c1c(F)cccc1Cl` [Compound 17, 2-(2-chloro-6-fluorobenzylidene)-N-ethoxyhydrazinecarboximidamide], the EC50 (human alpha2A receptor) is reported as > 33.3 µM and the “prevention” value [1] is reported as “prevent type-I IFN production”.
